Assay results taken from PubChem BioAssay (NCI).
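Following 48 hours of exposure in 96-well plates, responses at five concentrations were used to interpolate endpoints linearly. At the GI50, growth is halved. TGI: concentration producing complete growth inhibition.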

Key:
Test in all cases: growth of human tumour cells (NCI), 48 h
786-0 renal = system: 786-0 renal
NCI/ADR-RES ovarian = system: NCI/ADR-RES ovarian
SNB-75 CNS = system: SNB-75 CNS
CCRF-CEM leukemia = system: CCRF-CEM leukemia
A549 NSCLC = system: A549 NSCLC
SF-295 CNS = system: SF-295 CNS
UACC-62 melanoma = system: UACC-62 melanoma
NCI-H23 lung = system: NCI-H23 lung
COLO 205 colon = system: COLO 205 colon
NCI-H522 lung = system: NCI-H522 lung
K-562 leukemia = system: K-562 leukemia
DU-145 prostate = system: DU-145 prostate
SK-MEL-5 melanoma = system: SK-MEL-5 melanoma
LOX IMVI melanoma = system: LOX IMVI melanoma
SK-OV-3 ovarian = system: SK-OV-3 ovarian
HCT-116 colon = system: HCT-116 colon
SN12C renal = system: SN12C renal
RPMI-8226 leukemia = system: RPMI-8226 leukemia
CAKI-1 renal = system: CAKI-1 renal
PC-3 prostate = system: PC-3 prostate
SF-539 CNS = system: SF-539 CNS
TK-10 renal = system: TK-10 renal
HOP-62 NSCLC = system: HOP-62 NSCLC
UO-31 renal = system: UO-31 renal
KM12 colon = system: KM12 colon
OVCAR-3 ovarian = system: OVCAR-3 ovarian
NCI-H226 lung = system: NCI-H226 lung
HCT-15 colon = system: HCT-15 colon
EKVX NSCLC = system: EKVX NSCLC
HCC-2998 colon = system: HCC-2998 colon

Compound: O=C(NO)c1ccc(Cn2ccc3c(Nc4ccccc4)ncnc32)cc1
- TGI (786-0 renal): 8.97 µM
- GI50 (NCI/ADR-RES ovarian): 0.636 µM
- TGI (NCI/ADR-RES ovarian): 2.03 µM
- GI50 (SNB-75 CNS): 1.04 µM
- TGI (SNB-75 CNS): 6.11 µM
- GI50 (CCRF-CEM leukemia): 1.41 µM
- TGI (CCRF-CEM leukemia): > 29 µM
- GI50 (A549 NSCLC): 3.1 µM
- TGI (A549 NSCLC): 15.5 µM
- GI50 (SF-295 CNS): 1.73 µM
- TGI (SF-295 CNS): 5.74 µM
- GI50 (UACC-62 melanoma): 1.04 µM
- TGI (UACC-62 melanoma): 4.42 µM
- GI50 (NCI-H23 lung): 1.47 µM
- TGI (NCI-H23 lung): 5.08 µM
- GI50 (COLO 205 colon): 1.43 µM
- TGI (COLO 205 colon): 5.73 µM
- GI50 (NCI-H522 lung): 1.07 µM
- TGI (NCI-H522 lung): 4.87 µM
- GI50 (K-562 leukemia): 1.14 µM
- TGI (K-562 leukemia): > 29 µM
- GI50 (DU-145 prostate): 1.41 µM
- TGI (DU-145 prostate): > 29 µM
- GI50 (SK-MEL-5 melanoma): 1.06 µM
- TGI (SK-MEL-5 melanoma): 4.05 µM
- GI50 (LOX IMVI melanoma): 1.78 µM
- TGI (LOX IMVI melanoma): 5.44 µM
- GI50 (SK-OV-3 ovarian): 2 µM
- TGI (SK-OV-3 ovarian): 9.87 µM
- GI50 (HCT-116 colon): 0.993 µM
- TGI (HCT-116 colon): 5.6 µM
- GI50 (SN12C renal): 3.29 µM
- TGI (SN12C renal): 7.05 µM
- GI50 (RPMI-8226 leukemia): 1.1 µM
- TGI (RPMI-8226 leukemia): > 29 µM
- GI50 (CAKI-1 renal): 2.17 µM
- TGI (CAKI-1 renal): 6.91 µM
- GI50 (PC-3 prostate): 2.82 µM
- TGI (PC-3 prostate): 21.5 µM
- GI50 (SF-539 CNS): 2.55 µM
- TGI (SF-539 CNS): 6.77 µM
- GI50 (TK-10 renal): 1.42 µM
- TGI (TK-10 renal): 12 µM
- GI50 (HOP-62 NSCLC): 2.2 µM
- TGI (HOP-62 NSCLC): 7.63 µM
- GI50 (UO-31 renal): 2.42 µM
- TGI (UO-31 renal): 6.38 µM
- GI50 (KM12 colon): 3.7 µM
- TGI (KM12 colon): 10.9 µM
- GI50 (OVCAR-3 ovarian): 3.06 µM
- TGI (OVCAR-3 ovarian): 12.1 µM
- GI50 (NCI-H226 lung): 3.88 µM
- TGI (NCI-H226 lung): 16 µM
- GI50 (HCT-15 colon): 3.59 µM
- TGI (HCT-15 colon): 7.81 µM
- GI50 (EKVX NSCLC): 2.75 µM
- TGI (EKVX NSCLC): 6.9 µM
- GI50 (HCC-2998 colon): 2.62 µM
- TGI (HCC-2998 colon): 6.12 µM
